According to publication PMC3810934 (Emerging Infectious Diseases, 2013):
Where two headings read alike, the source gives them in different places.

Experiments:
[1] = target: T1, Oseltamivir-resistant A/Texas/23/2012 neuraminidase (H275Y) (Influenza A virus (H1N1pdm09), UniProt R4SI91, H275Y); assay type: biochemical, Pandemic influenza A(H1N1) 2009 virus; settings: pH 6.5
[2] = target: T2, Oseltamivir-resistant A/Bethesda/956/2006 neuraminidase (K at 292) (Influenza A virus (H3N2), UniProt F1KL32, R292K); assay type: biochemical; settings: pH 5.1
[3] = target: T2, Oseltamivir-resistant A/Bethesda/956/2006 neuraminidase (K at 292); assay type: biochemical; settings: pH 6.5
[4] = target: T1, Oseltamivir-resistant A/Texas/23/2012 neuraminidase (H275Y); assay type: biochemical, Pandemic influenza A(H1N1) 2009 virus; settings: pH 5.1

CCC(CC)[C@H](NC(C)=O)[C@@H]1[C@H](O)[C@@H](C(=O)O)C[C@H]1N=C(N)N [Peramivir, peramivir]
Fold change in IC50 compared with drug-sensitive subtype-specific control [1]: 15.81 (264) -fold | IC50 [1]: 15.8 nM | Fold change in IC50 compared with drug-sensitive subtype-specific control [2]: 8.58 (86) fold | IC50 [2]: 8.58 nM | Fold change in IC50 compared with drug-sensitive subtype-specific control [3]: 16.27 (203) -fold | IC50 [3]: 16.3 nM | Fold change in IC50 compared with drug-sensitive subtype-specific control [4]: 30.17 (431) fold | IC50 [4]: 30.2 nM
